Laboratory results published in patent US5434266A, “Monosaccharide analog-based glycosidase inhibitors” (priority 1993, dated 1995).
Read-outs that look alike come from different tables or passages of the source.

Columns and labels:
[1] = target: green coffee bean α-galactosidase (Coffea arabica, UniProt Q42656); test: Glycosidase inhibition, green coffee bean α-galactosidase; assay type: biochemical; details: coffeebean galactosidase
Protocol: (§1) pH for Enzyme Assays--Yeast e-glucosidase and green coffee bean α-galactosidase were assayed at pH 6.6. Almond β-glucosidase and jackbean α-mannosidase were assayed at pH 5.0. Bovine liver β-galactosidase was assayed at pH 7.0.
(§2) Working Enzyme Solutions--Typical enzyme concentrations in the assay buffer for inhibitor screening were as follows: yeast α-glucosidase, 10 μL of enzyme suspension in 2.00 mL pH 6.6 phosphate-citrate buffer; almond β-glucosidase, 25 μL of enzyme solution (0.4 mg solid enzyme in 70 μL pH 5.0 NaCl/NaOAc buffer) in 5.00 mL pH 5.0 NaCl/NaOAc buffer; jackbean α-mannosidase, 5-8 μL of enzyme suspension in 2.00 mL NaCl/NaOAc buffer; green coffee bean α galactosidase, 15 μL of enzyme suspension in 1.2 mL NaCl/NaOAc buffer; bovine liver β-galactosidase, 1.7 mg solid enzyme in 850 μL, NaCl/NaOAc buffer.
(§3) An acceptable concentration of enzyme, upon hydrolysis of the corresponding glycoside, should give an absorbance reading between 0.4 and 2.0 at 400 nm. A control assay was first performed to determine whether the enzyme concentration was acceptable. The assays involved addition of working enzyme solution (0.09 mL) and deionized water (0.18 mL) to buffer at the appropriate pH (0.09 mL, phosphate-citrate). […] The absorbance of the resulting solution was measure at 400 nm. Once this control run of the system gave an absorbance within 0.4-2.0, the potential inhibitors were assayed against this working enzyme solution at final inhibitor and substrate concentrations of 1 and 5 mM, respectively. […]
(§4) Five substrate solutions (usually […]) and five inhibitor solutions (usually 0-200 μM) were prepared. […] The amound of released p-nitrophenolate was measured spectrophotometrically at 400 nm. […]
(§5) The velocities (V) of substrate hydrolysis at every combination of inhibitor [I] and substrate [S] concentrations were determined by plotting the absorbance values with respect to time and t]hen calculating the slopes of the lines. […] KI values were also calculated from Hanes-Woolf plots of [S]/V vs. [S] by replotttng the [S]/V intercepts versus [I] and ascertaining the [I] intercept. […]

[2] = target: T1, bovine liver β-galactosidase (Bos taurus, UniProt F1MNT6); test: Glycosidase inhibition / KI determination, bovine liver β-galactosidase; assay type: biochemical
T1 construct: from tissue; host or cells: bovine liver
T1 sequence (F1MNT6 1-469): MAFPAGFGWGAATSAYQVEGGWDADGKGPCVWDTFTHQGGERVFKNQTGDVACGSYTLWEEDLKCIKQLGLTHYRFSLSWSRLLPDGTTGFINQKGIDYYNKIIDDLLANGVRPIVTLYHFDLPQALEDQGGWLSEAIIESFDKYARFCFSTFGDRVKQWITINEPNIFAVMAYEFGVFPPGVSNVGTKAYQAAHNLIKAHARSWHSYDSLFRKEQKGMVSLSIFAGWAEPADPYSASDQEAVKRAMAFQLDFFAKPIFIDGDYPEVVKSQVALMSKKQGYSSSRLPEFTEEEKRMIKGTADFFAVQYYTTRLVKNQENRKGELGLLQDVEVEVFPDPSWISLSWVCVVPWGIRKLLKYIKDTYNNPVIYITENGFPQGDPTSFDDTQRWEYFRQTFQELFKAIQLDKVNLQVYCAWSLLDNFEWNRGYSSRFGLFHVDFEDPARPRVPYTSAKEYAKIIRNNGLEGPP
Protocol: as §1, §2
(§6) An acceptable concentration of enzyme, upon hydrolysis of the corresponding glycoside, should give an absorbance reading between 0.4 and 2.0 at 400 nm. A control assay was first performed to determine whether the enzyme concentration was acceptable. The assays involved addition of working enzyme solution (0.09 mL) and deionized water (0.18 mL) to buffer at the appropriate pH (0.09 mL, phosphate-citrate). The resulting solution was incubated at 37° C. for 5 minutes. Aliquots (0.1 mL) of this preincubation mixture was then added to three separate test tubes. Substrate (the corresponding p-nitrophenyl-D-glycoside, 0.1 mL, 10 mM in appropriate buffer), which had also been incubated at 37° C., was then added to each tube at thirty-second intervals. The hydrolyses were allowed to continue for 0.25 hours and then quenched by addition of glycine buffer (2.5 mL). The absorbance of the resulting solution was measure at 400 nm. Once this control run of the system gave an absorbance within 0.4-2.0, the potential inhibitors were assayed against this working enzyme solution at final inhibitor and substrate concentrations of 1 and 5 mM, respectively. In the inhibitor assays, deionized water was replaced by the inhibitor ([…] solution in deionized water). All inhibitors were tested in triplicate, with a control (by substituting the inhibitors with deionized water) and a standard.
(§7) Five substrate solutions (usually […]) and five inhibitor solutions (usually 0-200 μM) were prepared. To a 3-mL test tube were added buffer at the appropriate pH (0.28 mL, phosphate-citrate), working enzyme solution (0.28 mL) and inhibitor solution (0.56 mL). The solution was incubated at 37° C. for 5 minutes. Aliquots (0.1 mL) of this solution were then pipetted into ten separate test tubes. Substrate solution (0.1 mL) was then added to each tube at thirty-second intervals. Duplicate reactions were terminated by addition of glycine buffer (2.5 mL) at the end of 3, 6, 8, 10, and 12 minutes. The amound of released p-nitrophenolate was measured spectrophotometrically at 400 nm. The process was repeated for all combinations of inhibitor and substrate concentrations.
as §5, with “lines. Double reciprocal plots of 1/V versus 1/[S] at different [I] were then generated.” for “lines.”

jackbean α-mannosidase = target: T2, jackbean α-mannosidase (Canavalia ensiformis, UniProt C0HJB3); test: Glycosidase inhibition / KI determination, jackbean α-mannosidase; assay type: biochemical
T2 construct: host or cells: jack bean
T2 sequence (C0HJB3 1-981): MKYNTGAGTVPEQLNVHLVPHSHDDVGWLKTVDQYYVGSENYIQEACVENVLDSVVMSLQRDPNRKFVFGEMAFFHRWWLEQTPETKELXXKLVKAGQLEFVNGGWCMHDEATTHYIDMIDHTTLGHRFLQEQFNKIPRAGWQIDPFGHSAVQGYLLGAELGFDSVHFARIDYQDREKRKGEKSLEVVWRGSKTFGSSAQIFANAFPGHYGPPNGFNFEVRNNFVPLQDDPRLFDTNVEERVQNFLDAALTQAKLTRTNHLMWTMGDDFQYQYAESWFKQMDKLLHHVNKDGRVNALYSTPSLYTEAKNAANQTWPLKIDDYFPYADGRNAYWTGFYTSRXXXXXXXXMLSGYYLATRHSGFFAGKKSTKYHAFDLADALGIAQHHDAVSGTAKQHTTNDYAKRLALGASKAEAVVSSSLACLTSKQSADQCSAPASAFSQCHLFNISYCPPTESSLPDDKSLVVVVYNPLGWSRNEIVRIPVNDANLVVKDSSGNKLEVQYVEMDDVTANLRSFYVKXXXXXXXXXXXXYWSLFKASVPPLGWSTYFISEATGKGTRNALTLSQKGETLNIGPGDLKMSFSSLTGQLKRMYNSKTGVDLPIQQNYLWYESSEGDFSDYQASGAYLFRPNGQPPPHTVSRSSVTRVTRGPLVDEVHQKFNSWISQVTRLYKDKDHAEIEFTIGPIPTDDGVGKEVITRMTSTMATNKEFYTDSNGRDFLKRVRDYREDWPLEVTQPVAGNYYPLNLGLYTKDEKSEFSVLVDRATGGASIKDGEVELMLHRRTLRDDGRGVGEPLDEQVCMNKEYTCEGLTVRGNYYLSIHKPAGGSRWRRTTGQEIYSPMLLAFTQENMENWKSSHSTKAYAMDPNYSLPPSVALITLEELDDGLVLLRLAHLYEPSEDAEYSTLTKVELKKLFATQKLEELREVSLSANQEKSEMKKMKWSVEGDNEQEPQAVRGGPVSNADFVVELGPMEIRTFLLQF
Protocol: as §1, §2, §6, §7
(§8) The velocities (V) of substrate hydrolysis at every combination of inhibitor [I] and substrate [S] concentrations were determined by plotting the absorbance values with respect to time and t]hen calculating the slopes of the lines. Double reciprocal plots of 1/V versus 1/[S] at different [I] were then generated. The slopes of each of these lines were then plotted against [I] and the data were fitted to a straight line. The [I]-intercept gave the enzyme-inhibitor dissociation constant. KI values were also calculated from Hanes-Woolf plots of [S]/V vs. [S] by replotttng the [S]/V intercepts versus [I] and ascertaining the [I] intercept. KI values in the Table represent an average of the two calculations.

[3] = target: T3, A. niger amyloglucosidase (Aspergillus niger, UniProt P69328); test: Glycosidase inhibition, A. niger amyloglucosidase; assay type: biochemical; details: pH 5.0, read-out: amylo-Glu pH 5.0 (class)
T3 construct: host or cells: Aspergillus niger
Protocol: as §6, §4, §5

almond β-glucosidase = test: Glycosidase inhibition / KI determination, almond β-glucosidase; assay type: biochemical; details: pH 5.0, read-out: KI β-Glu pH 5.0
Protocol: as §1, §2, §6, §7, §8

yeast α-glucosidase = target: T4, yeast α-glucosidase (Saccharomyces cerevisiae, UniProt P53341); test: Glycosidase inhibition / KI determination, yeast α-glucosidase; assay type: biochemical
T4 construct: host or cells: yeast
Protocol: as §1, §2, §3, §4, §5

mannosidases = details: cited from earlier work
HIV = details: cited from earlier work
glucosidases = details: cited from earlier work
galactosidases = details: cited from earlier work
[4] = pH 7.0, read-out: β-gal pH 7.0 (class)
[5] = pH 5.0, read-out: KI α-man pH 5.0
[6] = pH 7.0, read-out: KI β-gal pH 7.0

Sequence of green coffee bean α-galactosidase (Q42656 16-378): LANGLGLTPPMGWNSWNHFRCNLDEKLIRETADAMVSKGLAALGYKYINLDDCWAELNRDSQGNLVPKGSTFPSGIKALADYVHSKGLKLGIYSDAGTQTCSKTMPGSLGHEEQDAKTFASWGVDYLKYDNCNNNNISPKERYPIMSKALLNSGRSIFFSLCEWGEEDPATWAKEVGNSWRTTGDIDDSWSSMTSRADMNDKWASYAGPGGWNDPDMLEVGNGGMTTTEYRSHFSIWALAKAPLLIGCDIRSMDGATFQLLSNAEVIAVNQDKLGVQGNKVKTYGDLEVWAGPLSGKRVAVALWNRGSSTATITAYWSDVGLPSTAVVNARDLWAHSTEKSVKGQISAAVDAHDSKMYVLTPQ
T3 sequence (P69328 25-640): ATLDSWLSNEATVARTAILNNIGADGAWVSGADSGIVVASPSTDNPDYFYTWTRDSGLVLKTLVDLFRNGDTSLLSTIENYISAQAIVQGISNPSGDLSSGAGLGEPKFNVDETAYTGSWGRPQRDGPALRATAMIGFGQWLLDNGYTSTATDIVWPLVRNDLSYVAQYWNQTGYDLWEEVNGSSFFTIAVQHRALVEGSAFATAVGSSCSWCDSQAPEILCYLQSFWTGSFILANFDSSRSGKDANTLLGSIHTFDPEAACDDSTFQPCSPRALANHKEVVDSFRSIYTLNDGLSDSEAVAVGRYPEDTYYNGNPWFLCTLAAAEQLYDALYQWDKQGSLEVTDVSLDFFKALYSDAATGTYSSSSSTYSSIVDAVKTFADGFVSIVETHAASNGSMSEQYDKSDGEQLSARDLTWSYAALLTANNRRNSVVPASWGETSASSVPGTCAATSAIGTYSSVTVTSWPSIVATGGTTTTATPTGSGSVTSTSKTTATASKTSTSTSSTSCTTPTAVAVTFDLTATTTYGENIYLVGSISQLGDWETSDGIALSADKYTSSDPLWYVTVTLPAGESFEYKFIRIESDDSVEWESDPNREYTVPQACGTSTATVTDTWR
T4 sequence (P53341 whole entry): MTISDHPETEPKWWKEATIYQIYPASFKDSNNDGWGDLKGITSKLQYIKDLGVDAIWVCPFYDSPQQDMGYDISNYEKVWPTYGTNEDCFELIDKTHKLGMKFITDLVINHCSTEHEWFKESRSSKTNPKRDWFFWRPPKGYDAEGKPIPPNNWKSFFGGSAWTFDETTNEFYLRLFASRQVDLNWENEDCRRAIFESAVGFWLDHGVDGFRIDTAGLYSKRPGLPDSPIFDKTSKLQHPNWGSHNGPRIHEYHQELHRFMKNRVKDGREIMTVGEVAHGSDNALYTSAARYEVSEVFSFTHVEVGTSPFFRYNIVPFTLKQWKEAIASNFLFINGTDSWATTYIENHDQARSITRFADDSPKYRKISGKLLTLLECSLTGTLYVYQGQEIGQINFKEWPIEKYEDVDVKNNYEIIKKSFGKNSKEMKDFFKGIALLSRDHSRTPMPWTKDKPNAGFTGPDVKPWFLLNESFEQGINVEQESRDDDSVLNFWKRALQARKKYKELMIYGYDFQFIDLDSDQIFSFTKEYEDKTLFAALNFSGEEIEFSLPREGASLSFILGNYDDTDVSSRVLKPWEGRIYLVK

CN(C)C1=N[C@H](CO)[C@@H](O)[C@H](O)[C@H]1O [Compound 2, D-Gluco-N,N-Dimethylamidine]
α-gal pH 6.6 (class) [1]: none | Ki [2, 4]: < 100 µM | Ki (jackbean α-mannosidase; pH 5.0, read-out: α-man pH 5.0 (class)): < 100 µM | Ki [3]: > 1000 µM | Ki (almond β-glucosidase): 83 µM | α-Glu pH 6.6 (class) (yeast α-glucosidase): none

OC[C@H]1N=C(NO)[C@H](O)[C@@H](O)[C@@H]1O [Compound 13, D-Glucoamidoxime]
Ki (jackbean α-mannosidase; [5]): 10 ± 2 µM | Ki (almond β-glucosidase): 13.8 ± 3 µM

OC[C@H]1NC[C@@H](O)[C@@H](O)[C@@H]1O [C, 1-deoxymannojirimycin]
mannosidase inhibition (mannosidases): inhibits mannosidases

OC[C@H]1NC[C@H](O)[C@@H](O)[C@@H]1O [Compound B, 1-deoxynojirimycin]
effect on infectivity of HIV (HIV): interfere with the infectivity of HIV | glucosidase inhibition (glucosidases): potent glucosidase inhibitors

OC[C@H]1NC(O)[C@H](O)[C@@H](O)[C@H]1O (stereo partly drawn) [D, galactostatin]
galactosidase inhibition (galactosidases): inhibits galactosidases

NNC1=N[C@H](CO)[C@@H](O)[C@H](O)[C@@H]1O [Compound 9, D-Mannoamidrazone]
Ki [2, 6]: 57 ± 2.5 µM | Ki (jackbean α-mannosidase; [5]): 0.166 ± 0.013 µM | Ki (almond β-glucosidase): 205 ± 25 µM

OC[C@H]1NC(O)[C@H](O)[C@@H](O)[C@@H]1O (stereo partly drawn) [Nojirimycin, nojirimycin, reference compound]
α-gal pH 6.6 (class) [1]: mod-none | Ki [2, 4]: > 1000 µM | α-man pH 5.0 (class) (jackbean α-mannosidase): moderate | Ki [3]: > 1000 µM | Ki (almond β-glucosidase): 380 µM | Ki (yeast α-glucosidase; pH 6.6, read-out: KI α-Glu pH 6.6): 13 µM | glucosidase inhibition (glucosidases): potent glucosidase inhibitors

NC1=N[C@H](CO)[C@@H](O)[C@H](O)[C@H]1O [Compound 1, D-Glucoamidine]
α-gal pH 6.6 (class) [1]: none | Ki [2, 4]: < 100 µM | Ki (jackbean α-mannosidase; [5]): 9 µM | Ki [3]: > 1000 µM | Ki (almond β-glucosidase): 8 µM | α-Glu pH 6.6 (class) (yeast α-glucosidase): none

NC1O[C@H](CO)[C@@H](O)[C@H](O)[C@H]1O (stereo partly drawn) [glucosylamine]
inhibition of α- and β-glucosidases (glucosidases; α- and β-glucosidases): inhibits both α- and β-glucosidases

OC[C@H]1N=C(NO)[C@@H](O)[C@@H](O)[C@@H]1O [Compound 15, D-Mannoamidoxime]
Ki (jackbean α-mannosidase; [5]): 2 ± 0.1 µM

NNC1=N[C@H](CO)[C@@H](O)[C@H](O)[C@H]1O [Compound 8, D-Glucoamidrazone]
Ki [2, 6]: 19 µM | Ki (jackbean α-mannosidase; [5]): 6.5 ± 3 µM | Ki (almond β-glucosidase): 8.4 ± 0.9 µM
